Reference: patent publication US20240306641A1, “P-BOOSTER” (EUROCHEM ANTWERPEN, priority 2021, published 2024)
“Also recorded” adds a separate entry of the source.

Columns and labels:
[1] = tested on: Arabidopsis thaliana Columbia-0; test: Arabidopsis 96-well plate anthocyanin quantification; assay type: in vivo
Experimental: Col-0 ecotype Arabidopsis seeds were sown in 96-well plates containing 150 μl of low phosphate modMS liquid medium containing 1% of sucrose. Compounds was added in 50 μM concentration (1% DMSO). Eight plants per repeat were collected 7 days after germination and put into a fresh Eppendorf. Extraction and quantification of anthocyanin levels was carried out according to The Plant cell 2013, 25:1641-1656. Anthocyanin levels were quantified by measuring absorption at 530 and 657 nm using a spectrophotometer and normalized to fresh weight input, and expressed relative to the low phosphate control. For pot experiments, the same procedure was followed with one 4-week old plant per sample.

[2] = tested on: Arabidopsis thaliana Columbia-0; test: Root hair number and length quantification, Arabidopsis vertical plate; assay type: in vivo
Experimental: (§1) All Arabidopsis plant experiments were performed using the Arabidopsis thaliana Columbia-0 background. The Arabidopsis pSPX1::GUS line is described in the […] 2008, 54: 965-975. For rice, the cultivar Nipponbare was used. For maize, the cultivars DKC 2931 and 8104 were used for regular pot experiments and sand-based pot experiments, respectively. For soybean, the cultivar Primus was used. […] The medium was solidified due to the addition of 0.6% Gelrite, unless stated otherwise. In case of vertical plates (root length and root hair measurements), the medium was supplied with 0.5% of sucrose and 1 μM (low phosphate, 1 μM KH2PO4, 9.9 mM KCl), 10 μM (low phosphate 10 μM KH2PO4, 9.9 mM KCl) or 1.25 mM KH2PO4 (high phosphate). Arabidopsis seeds were stratified for 2 days at 4° C. before germination. Seedlings were germinated in climate-controlled growth chambers at 22° C. under continuous light ([…] m^−2 s^−1). Husked rice seeds were germinated on wetted Whatman paper for 2 days at 37° C. and then transferred to Sterivent boxes or square Petri dishes with solid medium. Maize and soybean seeds were wetted 24 hours at room temperature prior to sowing in pots.
Roots were imaged using a stereomicroscope or a VHX-6000. Number and length of the root hairs parallel to the medium surface was determined at 4 to 6 mm above the root meristem. Root hair length was measured using the ImageJ software.

[3] = tested on: SPX1 phosphate starvation biomarker (pSPX1::GUS); test: Chemical activity assessment: SPX1 suppression in Arabidopsis pSPX1::GUS reporter line (GUS stained area); assay type: in vivo, Arabidopsis thaliana
Experimental: as §1
For the chemical activity assessment 3 to 8 seeds per well of Arabidopsis pSPX1::GUS line were sown in 96-well plates containing 150 μl of low phosphate modMS liquid medium containing 1% of sucrose. Compounds were added in 50 μM concentration, starting from a 5 mM stock of compounds solved in DMSO. Different chemical substances were separately added to different wells. Per plate, 16 control wells were used, 8 containing only the low phosphate medium and 1% DMSO, and 8 containing high phosphate medium and 1% DMSO. 7 days after germination, plates were scanned using a flatbed scanner (EPSON Expression 11000XL) and analyzed for leaf size. After scanning, the growth medium was replaced by GUS staining solution (see Plant Mol. Biol. Rep. 1994, 12: 37-42 for details) and incubated for 1.5 hours at 37° C. The plates were scanned a second time and analyzed for GUS signal area. Measurements of both leaf area and GUS signal area were conducted by filtering out and measure the green and blue signal, respectively using ImageJ software. If the green leaf area was 50% or less than the control, samples were omitted. Additionally, all results were visually screened for leaf size and GUS signal.
To identify new substances that suppress the expression of the SPX1 phosphate starvation biomarker, we used an Arabidopsis SPX1 reporter line pSPX1::GUS. […] This observation was confirmed in two experimental repeats.

[4] = tested on: maize cultivar DKC 2931; test: Regular maize pot experiment (potting soil); assay type: in vivo; settings: low phosphate, 10 μM compound
Experimental: as §1
Regular Arabidopsis, soybean and maize pot experiments used an unfertilized potting soil, which was supplemented at the start of the experiment with 50 ml H2O containing 0.25 g/l NH4NO3 and 0.44 g/l (high phosphate) or no (maize and soybean) or 0.11 g/l KH2PO (Arabidopsis) for low phosphate conditions. For the sand-based maize pot experiment, sand was supplemented with 50 ml H2O containing 0.25 g/l NH4NO3 and 0.38 g/l (high phosphate) or 0.02 g/l (low phosphate) KH2PO4. Potassium was balanced via addition of KCl. Compound concentration was 10 μM, calculated based on the total water content after watering, and was added at the start of the experiment (Arabidopsis) or once a week (maize). Indexed chlorophyll contents were received via a SPAD 502 Plus Chlorophyll Meter. All parameters in the sand experiment, except the rate of leaf 4 (measured the first 4 days after emergence), were measured 19 days after sowing. Measurements in the pot experiments with potting soil were done after 4 weeks of growth, except for leaf 5, which was measured at 26 days. The long term maize pot experiment was performed on the automated Phenovision platform (see Mertens et al, 2021, https://doi.org/10.3389/fpls.2021.640914) with maize cultivars B104 and DKC2931. End point measurements occurred after 90 days (B104) or 70 days (DKC2931). Plants were grown on an unfertilized potting soil, which was fertilized bi-weekly with 50 mL modified Hoagland solution (2.5× concentrated; but with 0.25 mM KH2PO4).

[5] = tested on: Arabidopsis thaliana Columbia-0; test: Arabidopsis vertical plate growth assay (primary root length, shoot biomass); assay type: in vivo; settings: low phosphate
Experimental: as §1
(§2) Arabidopsis primary root growth experiments were done on MS1/2 on vertical standing plates and roots were measured 11 days after germination. Roots were imaged using a flatbed scanner (EPSON Expression 11000XL) and root length was measured using ImageJ software. Arabidopsis shoot biomass was determined in 11 days after germination and growth on vertical standing plates with modMS. Arabidopsis leaf area was measured 21 days after germination on horizontal plates with modMS medium. Plates were scanned from the top using a flatbed scanner (EPSON Expression 11000XL) and the visible leaf area was measured using ImageJ software. Rice plate experiments used vertically standing Petri dishes containing MS1/2 medium (low phosphate—0.001 mM) solidified with 0.8% washed agar. Plant height was measured 11 days after germination. […] Plant height was measured 13 days after germination. […]

[6] = tested on: rice cultivar Nipponbare; test: Rice plate experiment (plant height); assay type: in vivo; settings: low phosphate 0.001 mM, 10 μM compound, 11 days after germination
Experimental: All Arabidopsis plant experiments were performed using the Arabidopsis thaliana Columbia-0 background. The Arabidopsis pSPX1::GUS line is described in the […] 2008, 54: 965-975. For rice, the cultivar Nipponbare was used. For maize, the cultivars DKC 2931 and 8104 were used for regular pot experiments and sand-based pot experiments, respectively. For soybean, the cultivar Primus was used. […] The medium was solidified due to the addition of 0.6% Gelrite, unless stated otherwise. […]
as §2, with “Rice plate experiments used vertically standing Petri dishes containing MS1/2 medium (low phosphate—0.001 mM) solidified with 0.8% washed agar.” left out

[7] = Arabidopsis vertical plate, high phosphate
[8] = Arabidopsis vertical plate, 10 μM compound, 11 days after germination

With CCN(CCCNc1ncnc2nc(N)ccc12)c1ccccc1 [Example 1] the “Anthocyanin level in the leaves (in words)” value ([1]; 96-well plate assay) was “reduced”, the Relative anthocyanin level ([1]; Arabidopsis 96-well plate, low phosphate, 50 μM compound, 7 days after germination, relative to control (=1)) was 0.6 and the activity at 1 µM ([2]; Arabidopsis thaliana, 1 μM compound, read-out: Total root hair length per root (in % compared to the control)) was 749%. The “Average root hair length per root in high phosphate conditions” value [2, 7] was 0.26 mm, the “Root hair number in high phosphate conditions (one plane in 2 mm region)” value [2, 7] was 9 and the “Total root hair length per root in high phosphate conditions” value [2, 7] was 0.26 cm. The “GUS (SPX1) stained area normalized to the number of seeds” value ([3]; 50 μM compound, low phosphate modMS liquid medium, 96-well, 7 days after germination, low phosphate control of same plate) was 0.3 pixels, the “Suppression of the SPX1 biomarker (in words)” value ([3]; low phosphate, 7 days of growth, GUS staining, listed as compound 17) was “practically completely suppressed the SPX1 biomarker; also recorded: strongest suppression of SPX1” and the Plant height ([4]; 4 weeks) was 59 cm. The Shoot weight ([4]; 4 weeks) was 4 g, the “Leaf 5” value ([4]; 26 days) was 43 cm and the “Primary root length compared with the control without compound (in words)” value ([5]; 10 μM, 11-day-old Arabidopsis) was “almost double the length of the control”. For the same molecule, the Primary root length [5, 8] was 3.4 cm, the Shoot biomass [5, 8] was 21 mg and the Plant height [6] was 15 cm.
